Source: PMC11375794, “Discovery of new Hsp90–Cdc37 protein–protein interaction inhibitors: in silico screening and optimization of anticancer activity” (RSC Advances, 2024)

Molecular target: T1, full-length Hsp90β (Homo sapiens, UniProt P08238)
T1 construct: For the protein expression of full-length Hsp90β, we received plasmids as a kind gift; made in house; host or cells: Escherichia coli strain Rosetta
Assay: Ligand-observed protein NMR (STD, trNOESY) with Hsp90β
Format: binding
Settings: for STD amplification factor (AMP): Hsp90β : ligand 1 : 200
Protocol: High-resolution NMR spectra of 13g were recorded using a Bruker Avance Neo 600 MHz spectrometer with a cryoprobe at 25 °C. Data collection employed pulse sequences from the Bruker library, and analysis was conducted using Bruker Topspin 4.2.0. The residual water signal was suppressed by excitation sculpting[54] with a 5 ms selective pulse, and a T1ρ filter of 100 ms was used to remove background protein resonances. The ^1H spectral widths were set at 5263 Hz. NMR samples were prepared in a buffer containing 50 mM potassium phosphate (pD 7.5), 100 mM KCl in D2O, 5 mM MgSO4, 2 mM DTT-d10, 0.02% NaN3, and 2% DMSO-d6. Full proton assignment (see ESI Fig. S6 and Table S2 ^†) was achieved using TOCSY, NOESY, ROESY, and HSQC spectra. The ^1H STD spectra were recorded with a protein : ligand ratio of 1 : 200, with protein and ligand concentrations of […] and 3 mM.
For the ^1H STD ligand epitope mapping experiments,[55] 65 536 data points (6.23 s and acquisition time) were used, with a relaxation delay of 1.63 s and 5120 scans. A short protein saturation time of 0.5 s was utilized to minimize the effect of relaxation on the STD amplification factors.[56] Selective on-resonance saturation of Hsp90β was performed at −0.827 ppm, with the transmitter offset referenced to 4.70 ppm. Off-resonance irradiation for the reference spectrum was applied at 30 ppm. The spectra were zero-filled and apodized using an exponential line-broadening function of 3 Hz. Errors in the STD amplification factor were estimated using the specified formula:[57] [drawing 46] NSTD and NREF are noise levels in STD and reference spectra. ISTD and IREF are signal intensities in STD and reference spectra. The relative errors of the STD amplification factors (Tables S3 and S6 ^†) for all protons are below 4%.
The trNOESY[58] spectra were recorded with 4096 data points in t2, 64 scans, 360 complex points in t1, and a relaxation delay of 1.5 s. […] The spectra were apodized with a squared sine bell function shifted by π/2 in both dimensions. Distances for 13g were calculated from the cross-peak volumes, assuming the integrated intensity of proton pairs 2′, 4′ and 1′, 5′ in the para-substituted phenyl ring with a distance of 2.5 Å and that the distances of the protons in pyrimidine ring are the same.

T1 sequence (P08238 whole entry): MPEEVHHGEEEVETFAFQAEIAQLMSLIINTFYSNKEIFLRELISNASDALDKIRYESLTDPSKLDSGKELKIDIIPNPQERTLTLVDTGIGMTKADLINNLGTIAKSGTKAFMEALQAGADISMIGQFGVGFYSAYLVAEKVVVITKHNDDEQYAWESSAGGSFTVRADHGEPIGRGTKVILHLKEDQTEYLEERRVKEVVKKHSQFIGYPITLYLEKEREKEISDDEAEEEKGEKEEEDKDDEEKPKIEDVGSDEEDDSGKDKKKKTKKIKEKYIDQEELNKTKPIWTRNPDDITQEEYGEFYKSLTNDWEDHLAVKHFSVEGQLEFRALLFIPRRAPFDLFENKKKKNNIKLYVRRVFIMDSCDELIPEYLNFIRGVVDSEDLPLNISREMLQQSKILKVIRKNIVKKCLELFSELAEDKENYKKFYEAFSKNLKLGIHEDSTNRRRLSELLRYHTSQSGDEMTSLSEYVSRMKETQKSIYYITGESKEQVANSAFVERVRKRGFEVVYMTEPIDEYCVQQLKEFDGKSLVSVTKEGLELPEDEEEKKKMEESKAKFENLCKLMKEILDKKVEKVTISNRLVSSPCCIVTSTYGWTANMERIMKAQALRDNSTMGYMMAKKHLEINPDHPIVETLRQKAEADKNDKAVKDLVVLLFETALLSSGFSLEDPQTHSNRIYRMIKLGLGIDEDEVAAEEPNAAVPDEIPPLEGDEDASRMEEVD

SMILES: O=C(NCCOc1ccccc1)c1ccc(Nc2cc(N3CCNCC3)ncn2)cc1 [Compound 13g, N-(2-Phenoxyethyl)-4-((6-(piperazin-1-yl)pyrimidin-4-yl)amino)benzamide]
- binding to Hsp90β by transferred NOESY (trNOESY) (negative NOEs in the presence of Hsp90β): confirmed
- STD amplification factor (AMP) (proton 1''): 0.83
- STD amplification factor (AMP) (proton 3''): 4.88
- STD amplification factor (AMP) (protons 1', 5'): 1.75
- STD amplification factor (AMP) (protons 1, 5): 2.18
- STD amplification factor (AMP) (protons 2', 4'): 1.78
- STD amplification factor (AMP) (protons 2,3,4): 2.14
